The numbers were not newly measured in patent US12691079B2, “Biodissolvable film for localized and efficient treatment of vulvodynia” (The University of North Carolina at Chapel Hill, priority 2019, dated 2026), which cites them from elsewhere.

The subject of the series is vulvar vestibule. As to conditions: topical application to the vulvar vestibule.

Consider `CCN(CC)CC(=O)Nc1c(C)cccc1C` [lidocaine], for which the duration of relief is 30 to 60 min.
